Series [1] addresses T1, hyaluronidase taken from bovine testicles (Bos taurus, UniProt Q2YDK3).
T1 construct: purchased Sigma Co; host or cells: bovine testicles
T1 sequence (Q2YDK3 36-553): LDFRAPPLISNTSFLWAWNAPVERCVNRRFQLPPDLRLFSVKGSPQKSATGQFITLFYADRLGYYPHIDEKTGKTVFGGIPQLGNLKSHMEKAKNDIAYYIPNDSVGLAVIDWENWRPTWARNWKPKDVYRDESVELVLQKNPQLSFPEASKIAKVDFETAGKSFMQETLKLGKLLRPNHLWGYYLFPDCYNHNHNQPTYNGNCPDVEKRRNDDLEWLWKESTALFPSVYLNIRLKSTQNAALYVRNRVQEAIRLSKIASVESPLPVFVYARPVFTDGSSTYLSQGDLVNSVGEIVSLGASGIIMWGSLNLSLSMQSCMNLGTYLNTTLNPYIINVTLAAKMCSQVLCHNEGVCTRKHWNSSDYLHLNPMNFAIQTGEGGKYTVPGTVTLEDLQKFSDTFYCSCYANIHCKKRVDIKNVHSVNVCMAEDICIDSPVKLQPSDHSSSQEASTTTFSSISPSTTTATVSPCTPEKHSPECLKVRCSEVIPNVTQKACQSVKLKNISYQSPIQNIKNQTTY
Nature of the series: Effect on hyaluronidase activity. The class given is biochemical. Particulars: concentration range 0.01-0.3 mM; bovine testicular hyaluronidase, pH 3.5. How it is done: 0.8 mg/ml of a hyaluronidase (a product of Sigma Co.) taken from bovine testicles was used as an enzyme. Test compounds (compound Nos. 1, 2, 4, 7, 8, 9 and 13) were dissolved at various concentrations in a 1 M acetate buffer (pH 3.5) and heated at 37° C. for 20 minutes. Then, calcium chloride was added to each of the resulting solutions so that the calcium chloride concentration became 5 mM, and each of the resulting mixtures was heated at 37° C. for 20 minutes.
Thereto was added potassium hyaluronate so that its concentration in the buffer became 2.4 mg/ml, and the mixture was heated at 37° C. for 40 minutes.
After the termination of the reaction, the amount of the substrate hydrolyzed was determined at 585 nm using the Elson-Morgan's procedure, from which there were determined the effects of each test compound at various concentrations on the normal enzymatic reaction.

The test system of the next series is rat gastric mucosa. The class given is in vivo. As to conditions: 50 mg/kg p.o. How it is done: The compound No. 1 of the present invention and two known cyclooxygenase inhibitors, i.e. Indometacin and Piroxicam were examined for action on rat gastric mucosa. That is, the compound No. 1, Indometacin or Piroxicam was administered orally to male SD rats (body weight: 200-250 g) which had been fasted for 24 hours. After the administration, the rats were allowed to no food and no water for 48 hours. Then, the stomach of each rat was removed under ether anesthesia and fixed with formalin. The resulting stomach was incised and the length of the mucous ulcer generated in the glandular portion of the stomach was measured using a dissecting microscope (magnification of 10).

Series [2] deals with rat plantar edema induced by carrageenin. Put plainly: Action against rat plantar edema induced by carrageenin. The format is in vivo. How it is done: Male Sprague-Dawley rats weighing 200-250 g were injected s.c. (subcutaneously) with 0.1 ml of carrageenin into the subplantar region of the right hind paw. 60 minutes before the carrageenin administration, a test compound (compound No. 1) had been administered p.o. (orally). […] Thus, the anti-inflammatory effect of the compound of the present invention was proven in this animal test.

The next series deals with male ddy mice. Put plainly: Acute toxicity by intravenous injection. The format is in vivo. As to conditions: 10-500 mg/kg, 10 mice per group. The procedure: The compound of the present invention was further tested for acute toxicity by intravenous injection using male ddy mice. There was no death when the compound No. 1 of the present invention was administered in an amount of 10-500 mg/kg (each group consisted of 10 mice).

Series [3] concerns rat peritoneal mast cells. Put plainly: Histamine liberation from rat peritoneal mast cells by concanavalin A. The format is cell-based. Particulars: Mast cell, test compound 0.2 mM, phosphatidylserine 3.0 μg/ml. How it is done:
This test was effected in accordance with the method of R. P. Siraganian [J. Immunol., 114, 886 (1974)]. That is, a Locke solution containing phosphatidylserine, a test compound and a suspension of rat peritoneal mast cells was heated for 20 minutes at 37° C. Incidentally, the concentrations of phosphatidylserine and the test compound in the Locke solution were 3.0 μg/ml and 0.2 mM, respectively. A concanavalin A solution was added to the Locke solution, and the mixture was subjected to a reaction for 10 minutes at 37° C. After ice-cooling, the reaction mixture was subjected to centrifugation for 10 minutes at 4° C. Both the supernatant and the precipitate were measured for histamine content by the method of Shore et al. [J. Exp. Ther., 127, 182 (1959)] to determine a ratio of histamine liberated.

The subject of series [4] is rat 48-hour homologous PCA reaction. Nature of the series: Rat 48-hour homologous PCA reaction. The format is in vivo. Particulars: 200 mg/kg p.o. 60 minutes before antigen; for Amount of colorant which leaked out: control 9.7 ± 1.9. How it is done:
Male SD rats weighing 200-250 g were injected with 0.1 ml of a rat anti-egg albumin serum diluted with a physiological saline solution, intradermally at the back in order to passively sensitize the rats. After 48 hours, 0.5 ml of 1% Evans Blue containing 5 mg of antigen (egg albumin) was administered intravenously. After 30 minutes, each rat was sacrificed by bleeding and the skin was peeled off. Then, the amount of the coloring material in the lesion was determined by the method of Katayama et al. [Microbial. Immunol., 122 (2), 89 (1987)]. Incidentally, each test compound had been administered orally 60 minutes before the antigen administration.

Series [5] has as its system rat peritoneal mast cells. As to conditions: 0.3 mM; concanavalin A; Chem. Pharm. Bull., 33 (9), 3738 (1985); cited from earlier work.
Series [6] deals with T1, hyaluronidase taken from bovine testicles. Particulars: Chem. Pharm. Bull., 33 (9), 3738 (1985), read-out: "50% enzyme inhibition" concentration; cited from earlier work.

The text below walks through data of US5004742A, “Benzothiazine-1,1-dioxide derivatives” (Nippon Hypox Laboratories Incorporated, priority 1989, dated 1991).

For `CN1C(C(=O)Nc2ccccc2)=C(O)c2ccccc2S1(=O)=O` [4-hydroxy-2-methyl-N-(phenyl)-2H-1,2-benzothiazine-3-carboxamido-1,1-dioxide], the “effect on hyaluronidase activity” value in series [1] is “no effect”.

As to `COc1ccc2c(c1)c(CC(=O)O)c(C)n2C(=O)c1ccc(Cl)cc1` [Indometacin], in the series with rat gastric mucosa, the “ulcer formation, in words” value was “very serious ulcer”. The “Ulcer index mean S.E.” value with rat gastric mucosa (rats fasted 24 hours, 48 hours after administration) stood at 42.8 ± 8.7.

`CN1C(C(=O)Nc2ccccc2-c2nn[nH]n2)=C(O)c2ccccc2S1(=O)=O` [No. 1, 4-hydroxy-2-methyl-N-[2'-(tetrazo-5"-yl)phenyl]-2H-1,2-benzothiazine-3-carboxamido-1,1-dioxide] yielded a swelling percent in series [2] (200 mg/kg p.o. 60 min before carrageenin, 30 minutes after carrageenin administration, control 18.2%) of 8.0%. Also, the “inhibition (%) of edema, in words” value in series [2] (200 mg/kg p.o., 1, 1.5, 2 and 3 hours after carrageenin administration) was “About the same inhibition”. For the same molecule, the inhibition of edema in series [2] (200 mg/kg p.o., 30 minutes after carrageenin administration) was found to be 54%. In addition, the “death in acute toxicity test” value in the series with male ddy mice is given as “no death”. In addition, the inhibition at 200 µM in series [3] is 93.9%. Moreover, in series [4], the “Suppression (%)” value was found to be 65.1% and the “Amount of colorant which leaked out” value stood at 3.4 ± 1.3 μg/site.

On to `CN1C(C(=O)Nc2ccccc2C(=O)O)=C(O)c2ccccc2S1(=O)=O` [No. 2, 4-Hydroxy-2-methyl-N-(2'-carboxyphenyl)-2H-1,2-benzothiazine-3-carboxamido-1,1-dioxide], for which the inhibition at 200 µM in series [3] was 81.3%. In series [4], the “Suppression (%)” value was 29.3% and the “Amount of colorant which leaked out” value is 6.8 ± 2.3 μg/site.

For the molecule `CN1C(C(=O)Nc2ccc(Cl)cc2C(=O)O)=C(O)c2ccccc2S1(=O)=O` [No. 3, 4-Hydroxy-2-methyl-N-(2'-carboxy-4'-chlorophenyl)-2H-1,2-benzothiazine-3-carboxamido-1,1-dioxide], the inhibition at 200 µM in series [3] worked out at 65%.

As to `CN1C(C(=O)Nc2cc(Cl)ccc2C(=O)O)=C(O)c2ccccc2S1(=O)=O` [No. 4, 4-Hydroxy-2-methyl-N-(2'-carboxy-5'-chlorophenyl)-2H-1,2-benzothiazine-3-carboxamido-1,1-dioxide], in series [3], the inhibition at 200 µM amounted to 85.1%.

Turning to `Cc1cccc(NC(=O)C2=C(O)c3ccccc3S(=O)(=O)N2C)c1C(=O)O` [No. 5, 4-Hydroxy-2-methyl-N-(2'-carboxy-3'-methylphenyl)-2H-1,2-benzothiazine-3-carboxamido-1,1-dioxide], in series [3], the inhibition at 200 µM came to 85.2%.

As for `Cc1ccc(NC(=O)C2=C(O)c3ccccc3S(=O)(=O)N2C)c(C(=O)O)c1` [No. 6, 4-Hydroxy-2-methyl-N-(2'-carboxy-4'-methylphenyl)-2H-1,2-benzothiazine-3-carboxamido-1,1-dioxide], the inhibition at 200 µM in series [3] was 63%.

With `CN1C(C(=O)Nc2ccc(O)cc2C(=O)O)=C(O)c2ccccc2S1(=O)=O` [No. 7, 4-Hydroxy-2-methyl-N-(2'-carboxy-4'-hydroxyphenyl)-2H-1,2-benzothiazine-3-carboxamido-1,1-dioxide], the inhibition at 200 µM in series [3] turned out to be 86%.

For the molecule `CN1C(C(=O)Nc2c(O)cccc2C(=O)O)=C(O)c2ccccc2S1(=O)=O` [No. 8, 4-Hydroxy-2-methyl-N-(2'-carboxy-6'-hydroxyphenyl)-2H-1,2-benzothiazine-3-carboxamido-1,1-dioxide], in series [3], the inhibition at 200 µM was found to be 83.7%.

For `CN1C(C(=O)Nc2cc([N+](=O)[O-])ccc2C(=O)O)=C(O)c2ccccc2S1(=O)=O` [No. 9, 4-Hydroxy-2-methyl-N-(2'-carboxy-5'-nitrophenyl)-2H-1,2-benzothiazine-3-carboxamido-1,1-dioxide], in series [3], the inhibition at 200 µM worked out at 106%.

For the molecule `CN1C(C(=O)Nc2cccc(C(=O)O)c2)=C(O)c2ccccc2S1(=O)=O` [No. 10, 4-Hydroxy-2-methyl-N-(3'-carboxyphenyl)-2H-1,2-benzothiazine-3-carboxamido-1,1-dioxide], the inhibition at 200 µM in series [3] came to 90.7%.

With `CN1C(C(=O)Nc2ccc(C(=O)O)cc2)=C(O)c2ccccc2S1(=O)=O` [No. 11, 4-Hydroxy-2-methyl-N-(4'-carboxyphenyl)-2H-1,2-benzothiazine-3-carboxamido-1,1-dioxide], in series [3], the inhibition at 200 µM is 60.3%.

`CN1C(C(=O)Nc2ccccn2)=C(O)c2ccccc2S1(=O)=O` [Piroxicam]: the “effect on hyaluronidase activity” value in series [1] is reported as “no effect”.

`COc1ccc(/C=C/C(=O)Nc2ccccc2C(=O)O)cc1OC` [Tranilast]: the “inhibition of histamine liberation” value in series [5] was “about 20%”. The IC50 in series [6] is around 230 µM.
